Measured values reported in US20210060033A1, “ORALLY ADMINISTERED COMBINATIONS OF BETA-LACTAM ANTIBIOTICS AND AVIBACTAM DERIVATIVES FOR TREATING BACTERIAL INFECTIONS” (priority 2019, published 2021).
≈ marks a conversion by molar mass, not a printed value. Where “and” joins values, the source holds several entries; their conditions need not be identical. Equal values may be shown once. Where a name gives a salt, the structure may show the parent alone. Read-outs that look alike come from different tables or passages of the source.

Assays:
[1] = test system: E. coli ATCC 35218; test: Agar MIC, E. coli ATCC 35218; format: cell-based; details: Escherichia coli, ATCC35218; E. coli ATCC 35218 (TEM-1 Quality Control Strain)
[2] = test system: K. pneumoniae 700603; test: Agar MIC, K. pneumoniae 700603; format: cell-based; details: Klebsiella pneumoniae; K. pneumoniae 700603 (SHV-18)
[3] = test system: E. cloacae 0065; test: Microbroth MIC, E. cloacae 0065; format: cell-based; details: Enterobacter cloacae; E. cloacae 0065 (cAmpC)
[4] = test system: K. pneumoniae 4582; test: Microbroth MIC, K. pneumoniae 4582; format: cell-based, Klebsiella pneumoniae
[5] = test system: E. cloacae 0060; test: Microbroth MIC, E. cloacae 0060; format: cell-based; details: Enterobacter cloacae; E. cloacae 0060 (cAmpC)
[6] = test system: K. pneumoniae 79; test: Agar MIC, K. pneumoniae 79; format: cell-based, Klebsiella pneumoniae
[7] = test system: K. pneumoniae 79; test: Microbroth MIC, K. pneumoniae 79; format: cell-based, Klebsiella pneumoniae
[8] = test system: K. pneumoniae 15160; test: Agar MIC, K. pneumoniae 15160; format: cell-based; details: Klebsiella pneumoniae; K. pneumoniae 15160 (CTX-M-15, CTX-M-2, OXA-10, OXA-1, SHV-11, TEM-1)
[9] = test system: E. cloacae 0002; test: Agar MIC, E. cloacae 0002; format: cell-based, Enterobacter cloacae
[10] = test system: E. cloacae 0060; test: Agar MIC, E. cloacae 0060; format: cell-based; details: Enterobacter cloacae; E. cloacae 0060 (cAmpC)
[11] = test system: K. pneumoniae 700603; test: Microbroth MIC, K. pneumoniae 700603; format: cell-based; details: Klebsiella pneumoniae; K. pneumoniae 700603 (SHV-18)
[12] = test system: E. coli 470-21711; test: Agar MIC, E. coli 470-21711; format: cell-based; details: Escherichia coli, 47021711; E. coli 470-21711 (CTX-M-15)
[13] = test system: E. coli ATCC 25922; test: Microbroth MIC, E. coli ATCC 25922; format: cell-based; details: Escherichia coli, ATCC25922
[14] = test system: E. cloacae 0002; test: Microbroth MIC, E. cloacae 0002; format: cell-based, Enterobacter cloacae
[15] = test system: K. pneumoniae 908; test: Agar MIC, K. pneumoniae 908; format: cell-based, Klebsiella pneumoniae
[16] = test system: E. cloacae 4182; test: Agar MIC, E. cloacae 4182; format: cell-based; details: Enterobacter cloacae; E. cloacae 4182 (De-repressed AmpC)
[17] = test system: K. pneumoniae ATCC BAA-1705; test: Microbroth MIC, K. pneumoniae ATCC BAA-1705; format: cell-based; details: Klebsiella pneumoniae
[18] = test system: K. pneumoniae 908; test: Microbroth MIC, K. pneumoniae 908; format: cell-based, Klebsiella pneumoniae
[19] = test system: E. cloacae 4184; test: Agar MIC, E. cloacae 4184; format: cell-based; details: Enterobacter cloacae; E. cloacae 4184 (De-repressed AmpC)
[20] = test system: E. cloacae 4182; test: Microbroth MIC, E. cloacae 4182; format: cell-based; details: Enterobacter cloacae; E. cloacae 4182 (De-repressed AmpC)
[21] = test system: E. coli 136-4643; test: Microbroth MIC, E. coli 136-4643; format: cell-based; details: Escherichia coli, 1364643; E. coli 136-4643 (CTX-M-15)
[22] = test system: E. coli ATCC 25922; test: Agar MIC, E. coli ATCC 25922; format: cell-based; details: Escherichia coli, ATCC25922; E. coli ATCC 25922 (Wildtype)
[23] = test system: E. cloacae 0065; test: Agar MIC, E. cloacae 0065; format: cell-based; details: Enterobacter cloacae; E. cloacae 0065 (cAmpC)
[24] = test system: K. pneumoniae 19701; test: Microbroth MIC, K. pneumoniae 19701; format: cell-based, Klebsiella pneumoniae
[25] = test system: K. pneumoniae 27144; test: Agar MIC, K. pneumoniae 27144; format: cell-based; details: Klebsiella pneumoniae; K. pneumoniae 27144 (CTX-M-15, OXA-1, OXA-48, SHV-11, TEM-1)
[26] = test system: E. coli 470-21711; test: Microbroth MIC, E. coli 470-21711; format: cell-based; details: Escherichia coli, 47021711; E. coli 470-21711 (CTX-M-15)
[27] = test system: E. cloacae 4184; test: Microbroth MIC, E. cloacae 4184; format: cell-based; details: Enterobacter cloacae; E. cloacae 4184 (De-repressed AmpC)
[28] = test system: E. coli ATCC 35218; test: Microbroth MIC, E. coli ATCC 35218; format: cell-based; details: Escherichia coli, ATCC35218; E. coli ATCC 35218 (TEM-1 Quality Control Strain)
[29] = test system: E. coli 136-4643; test: Agar MIC, E. coli 136-4643; format: cell-based; details: Escherichia coli, 1364643; E. coli 136-4643 (CTX-M-15)
[30] = cited from earlier work
[31] = test system: K. pneumoniae 4582; test: Agar MIC, K. pneumoniae 4582; format: cell-based, Klebsiella pneumoniae
[32] = test system: K. pneumoniae 27144; test: Microbroth MIC, K. pneumoniae 27144; format: cell-based; details: Klebsiella pneumoniae; K. pneumoniae 27144 (CTX-M-15, OXA-1, OXA-48, SHV-11, TEM-1)
[33] = test system: K. pneumoniae 19701; test: Agar MIC, K. pneumoniae 19701; format: cell-based, Klebsiella pneumoniae
[34] = human; cited from earlier work
[35] = test system: K. pneumoniae 15160; test: Microbroth MIC, K. pneumoniae 15160; format: cell-based; details: Klebsiella pneumoniae; K. pneumoniae 15160 (CTX-M-15, CTX-M-2, OXA-10, OXA-1, SHV-11, TEM-1)
[36] = test system: OXA-positive isolates (n = 22); format: cell-based, Enterobacteriaceae; details: OXA n = 22; avibactam or clavulanic acid fixed at 4 μg/mL in combinations
[37] = E. coli ATCC 25922 (Wildtype), read-out: Microbroth MIC

SMILES | MIC [1] [µg/mL] | MIC [2] [µg/mL] | MIC [3] [µg/mL] | MIC [5] [µg/mL] | MIC [8] [µg/mL] | MIC [10] [µg/mL] | MIC [11] [µg/mL] | MIC [12] [µg/mL] | MIC [13, 37] [µg/mL] | MIC [16] [µg/mL] | MIC [19] [µg/mL] | MIC [20] [µg/mL] | MIC [21] [µg/mL] | MIC [22] [µg/mL] | MIC [23] [µg/mL] | MIC [25] [µg/mL] | MIC [26] [µg/mL] | MIC [27] [µg/mL] | MIC [28] [µg/mL] | MIC [29] [µg/mL] | other results
NC(=O)[C@@H]1CC[C@@H]2CN1C(=O)N2OS(=O)(=O)O [avibactam, [2S,5R]-2-carbamoyl-7-oxo-1,6-diazabicyclo[3.2.1]octan-6-yl hydrogen sulfate] | 8 | 64 | 16 | 32 | 16 | 16 | 64 | 8 | 16 | 16 | 16 | 32 | 256 | 8 | 8 | 64 | 16 | 32 | 16 | 8 | Microbroth MIC ([4]; K. pneumoniae 4582 (KPC-3), listed as AVI): 64 µg/mL and 32 µg/mL; MIC ([6]; Klebsiella pneumoniae, K. pneumoniae 79 (KPC-3, FOX-5, TEM-1 SHV-11), read-out: agar MIC): 16 µg/mL; Microbroth MIC ([7]; K. pneumoniae 79 (KPC-3, FOX-5, TEM-1 SHV-11), listed as AVI): 16 µg/mL and 32 µg/mL; MIC ([9]; Enterobacter cloacae, E. cloacae 0002 (KPC-3, OXA-9, TEM-1A), read-out: agar MIC): 16 µg/mL; MIC ([14]; Enterobacter cloacae, E. cloacae 0002 (KPC-3, OXA-9, TEM-1A), read-out: Microbroth MIC): 32 µg/mL; MIC ([15]; Klebsiella pneumoniae, K. pneumoniae 908 (KPC-2, SHV-27, TEM-1), read-out: agar MIC): 128 µg/mL; MIC ([17]; ATCCBAA1705, K. pneumoniae ATCC BAA-1705 (KPC-2), read-out: Microbroth MIC): 16 µg/mL; MIC ([18]; Klebsiella pneumoniae, K. pneumoniae 908 (KPC-2, SHV-27, TEM-1), read-out: Microbroth MIC): 128 µg/mL; MIC ([24]; Klebsiella pneumoniae, K. pneumoniae 19701 (KPC-2), read-out: Microbroth MIC): > 512 µg/mL; plasma protein binding ([30]; assumed for free-drug profiles): 6.95%; MIC ([31]; Klebsiella pneumoniae, K. pneumoniae 4582 (KPC-3), read-out: agar MIC): 8 µg/mL; MIC [32]: 512 µg/mL; MIC ([33]; Klebsiella pneumoniae, K. pneumoniae 19701 (KPC-2), read-out: agar MIC): 32 µg/mL; oral bioavailability [34]: about 6 % F
Nc1nc(/C(=C/CC(=O)O)C(=O)N[C@@H]2C(=O)N3C(C(=O)O)=CCS[C@H]23)cs1 [ceftibuten, (6R,7R)-7-((Z)-2-(2-amino-4-thiazolyl)-4-carboxycrotonamido)-8-oxo-5-thia-1-azabicyclo(4.2.0)oct-2-ene-2-carboxylic acid] | 0.125 (≈ 0.305 µM) | 0.5 (≈ 1.22 µM) | > 64 | > 64 | 32 (≈ 78 µM) | > 64 | 0.5 (≈ 1.22 µM) | 32 (≈ 78 µM) | 0.5 (≈ 1.22 µM) | > 64 | > 64 | > 64 | 32 (≈ 78 µM) | 0.5 (≈ 1.22 µM) | > 64 | 32 (≈ 78 µM) | 64 (≈ 156 µM) | > 64 | 0.125 (≈ 0.305 µM) | 8 (≈ 19.5 µM) | MIC ([4]; Klebsiella pneumoniae, 4582, read-out: Microbroth MIC): 32 µg/mL (≈ 78 µM); MIC [35]: 64 µg/mL (≈ 156 µM); MIC ([6]; Klebsiella pneumoniae, 79, read-out: agar MIC): 64 µg/mL (≈ 156 µM); MIC ([7]; Klebsiella pneumoniae, 79, read-out: Microbroth MIC): > 64 µg/mL; MIC ([9]; Enterobacter cloacae, 0002, read-out: agar MIC): 16 µg/mL (≈ 39 µM); MIC ([13]; E. coli ATCC 25922 (Wild type), read-out: MIC): 0.5 µg/mL (≈ 1.22 µM); MIC ([14]; Enterobacter cloacae, 0002, read-out: Microbroth MIC): 32 µg/mL (≈ 78 µM); MIC ([15]; Klebsiella pneumoniae, 908, read-out: agar MIC): 32 µg/mL (≈ 78 µM); MIC ([17]; ATCCBAA1705, read-out: Microbroth MIC): 16 µg/mL (≈ 39 µM); MIC ([18]; Klebsiella pneumoniae, 908, read-out: Microbroth MIC): 32 µg/mL (≈ 78 µM); Estimated MIC90 [36]: >32 µg/mL; MIC ([24]; Klebsiella pneumoniae, 19701, read-out: Microbroth MIC): 64 µg/mL (≈ 156 µM); plasma protein binding ([30]; plasma): 65.0%; MIC ([31]; Klebsiella pneumoniae, 4582, read-out: agar MIC): 16 µg/mL (≈ 39 µM); MIC [32]: 64 µg/mL (≈ 156 µM); MIC ([33]; Klebsiella pneumoniae, 19701, read-out: agar MIC): 32 µg/mL (≈ 78 µM)
